Counter-ions that a name gives are not always drawn.
Columns and labels:
[1] = target: T1, A. fumigatus Serine Protease (Aspergillus fumigatus, UniProt P28296); assay: Residual serine protease activity after preincubation with serine protease inhibitors; assay type: biochemical; settings: for Serine protease (SP) activity (%), A. fumigatus Serine Protease: inhibitor 1 mM, pH 7.5, 30 min preincubation at 22° C., control = 100%; for Prevention of hydrolysis of Suc-Ala-Ala-Pro-Leu-pNA by A. fumigatus serine protease (in words): summary of Table 3
T1 construct: The extracellular serine proteases of A. fumigatus and A. flavus were purified from 5 day cultures; endogenous in cells; host or cells: Aspergillus fumigatus 5-day culture, extracellular fluid, bacitracin-Sepharose 4B
T1 sequence (P28296 122-403): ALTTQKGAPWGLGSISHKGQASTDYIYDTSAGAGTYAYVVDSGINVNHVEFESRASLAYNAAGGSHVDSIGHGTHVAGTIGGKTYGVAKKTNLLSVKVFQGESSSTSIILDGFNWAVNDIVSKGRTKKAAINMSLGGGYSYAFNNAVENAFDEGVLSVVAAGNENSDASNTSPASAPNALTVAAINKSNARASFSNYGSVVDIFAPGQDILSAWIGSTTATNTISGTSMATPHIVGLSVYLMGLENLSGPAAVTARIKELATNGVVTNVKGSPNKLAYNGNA
From the text: (§1) The serine protease inhibitors 4-carboxamido-substituted cephem (L-658,758), (S-(R*,S*))-4-((3,3-diethyl-1-((1-(4-methyl-phenyl)butylamino)carbonyl)-4-oxo-2-azetidinyl)oxy)-benzeneacetic acid 2-amino-2-methyl-1-propanol salt (L-680, 833) are known to irreversibly bind to the active site of the elastolytic serine protease obtained from neutrophils. It is also known that the serine protease inhibitor PMSF irreversibly binds to the active site of all serine proteases. The ability of the serine protease inhibitors L-658,758 and L-680,833, both of which were obtained from Merck Chemical Company, Rahway, N.J., and PMSF to block the proteolytic activity of the elastolytic serine proteases from Aspergillus fumigatus and Aspergillus flavus were tested as follows.
(§2) Reaction mixtures for each protease were prepared by adding the protease to 0.1M Hepes, pH 7.5. The experimental samples were then preincubated for 30 minutes at 22° C. with 1 mM of the inhibitors. At the end of the 30 minute pre-incubation, the chromogenic substrate Suc-Ala-Ala-Pro-Leu-p-Na at a final concentration of 1 mM was added to each sample. The enzyme activity in the samples was monitored by measuring the release of pNA from the chromogenic substrate at 22° C. during a 10 minute reaction time. The enzyme activity in each experimental sample as a percentage of the enzyme activity in the control sample which was taken to be 100% was then determined.

[2] = target: T2, A. flavus Serine Protease (Aspergillus flavus, UniProt P35211); assay: as above; assay type: biochemical; settings: for Prevention of hydrolysis of Suc-Ala-Ala-Pro-Leu-pNA by A. flavus serine protease (in words): summary of Table 3
T2 construct: The extracellular serine proteases of A. fumigatus and A. flavus were purified from 5 day cultures; endogenous in cells; host or cells: Aspergillus flavus 5-day culture, extracellular fluid, bacitracin-Sepharose 4B
T2 sequence (P35211 122-403): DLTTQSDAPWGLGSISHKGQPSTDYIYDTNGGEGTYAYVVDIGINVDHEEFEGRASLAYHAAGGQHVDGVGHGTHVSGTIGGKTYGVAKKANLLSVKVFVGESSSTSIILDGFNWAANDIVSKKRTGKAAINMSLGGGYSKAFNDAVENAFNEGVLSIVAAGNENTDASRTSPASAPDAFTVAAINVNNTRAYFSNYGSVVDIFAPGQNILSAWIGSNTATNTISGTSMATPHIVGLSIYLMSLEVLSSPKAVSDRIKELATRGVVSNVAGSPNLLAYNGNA
From the text: as §1, §2

[3] = target: porcine pancreatic elastolytic serine protease (Sus scrofa, UniProt P00772); assay: as above; assay type: biochemical; settings: for Reduction of the activity of porcine serine protease (in words): summary of Table 3
Sequence of porcine pancreatic elastolytic serine protease (P00772 27-266): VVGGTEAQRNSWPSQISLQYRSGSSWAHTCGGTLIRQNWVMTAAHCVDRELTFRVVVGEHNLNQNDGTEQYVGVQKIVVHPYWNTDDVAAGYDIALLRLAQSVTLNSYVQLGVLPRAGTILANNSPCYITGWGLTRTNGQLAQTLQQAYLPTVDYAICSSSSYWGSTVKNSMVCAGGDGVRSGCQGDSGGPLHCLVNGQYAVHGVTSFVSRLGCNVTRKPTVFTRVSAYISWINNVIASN
Experimental: as §2

[4] = statement without test; cited from earlier work
[5] = background statement; cited from earlier work
[6] = tested on: CC(C)C[C@H](NC(=O)[C@@H]1CCCN1C(=O)[C@H](C)NC(=O)[C@H](C)NC(=O)CCC(=O)O)C(=O)Nc1ccc([N+](=O)[O-])cc1; assay: purified protein, by the assay type; settings: other: 22° C., pH 8.0, Lineweaver-Burk plot
Experimental: (§3) First the Km values of the elastolytic serine proteases from A. fumigatus and A. flavus were calculated. […] The Km of the elastolytic serine proteases from A. fumigatus and A. flavus were determined using the synthetic chromogenic molecule Suc-Ala-Ala-Pro-Leu-pNa as a substrate. Reaction mixtures were prepared containing 5 μm of various concentrations of the chromogenic substrate dissolved in dimethyl sulfoxide, 990 μm of 0.1M Tris-HCl, buffer pH 8.0, and 5 μm of the aspergillus protease (0.65 mg/ml). The release of pNa from the substrate and the subsequent increase in absorbance of the reaction mixture at 410 nm was monitored at 22° C. for 10 minutes using a Hewlett Packard 8451A diode array spectrophotometer. The initial rates of the enzymatic reaction at 22° C. were then determined for each concentration of substrate and the reciprocals plotted on a Lineweaver-Burk plot.
(§4) Next the ability of the reversible subtilisin-type inhibitors Barley ASI, purified SSI, and recombinant SSI and of the reversible chymotrypsin-type inhibitors Eglin C, potato protease I1, and potato protease I2 to block hydrolysis of the synthetic chromogenic substrate by the aspergillus elastolytic serine proteases was evaluated. Various concentrations of each inhibitor were pre-incubated for 5 minutes in samples containing the buffer and protease. […]

[7] = target: A. fumigatus elastolytic serine protease (Aspergillus fumigatus, UniProt P28296); assay: Inhibition constants (Ki) of reversible inhibitors for A. fumigatus elastolytic serine protease, chromogenic substrate; settings: summary of Table 2
Sequence of A. fumigatus elastolytic serine protease (P28296 122-403): as the sequence (P28296 122-403) above
Experimental: as §3, §4

[8] = Toxicity of the composition in irradiated, uninoculated mice; assay type: in vivo, Balb/c mice; settings: Experiment 1, seven 10 μl treatments of the 50 mg/ml composition over 48 hours
Experimental: Tests were conducted to assess the effect of treatment with the pharmaceutical compositions of the present invention on the pathogenesis of invasive pulmonary aspergillosis in immunocompromised animals. To prevent secondary bacterial or viral infections in the treated and control animals, pathogen-free eight-week old female Balb/c mice were housed in a Bioclean laminar flow hood and provided with oxytetracylcine (100 mg/l)-neomycin sulfate (10 mg/l), pH 2.5, from 7 days prior to irradiation until the end of each experiment. Following seven days of treatment with the antibiotics, one group of animals was made immunodeficient by exposure to 400 rads of gamma radiation from a Cesium 137 source.
To test the toxicity of the pharmaceutical composition of example 1, a second group of irradiated mice, inoculated with 30 ul of Tween alone were treated with a […] the pharmaceutical composition from example 1 according to the same schedule for a total of seven treatments.
Twenty-five, irradiated, uninoculated animals were also treated with […] of the pharmaceutical composition of example 4 according to the same schedule to assess the toxicity of the composition containing potato protease inhibitor in immunocompromised animals. The effect of treatment with the pharmaceutical composition of example 4 on the survival of uninoculated and aspergillus-inoculated animals is shown in Table 7.

[9] = inhibitor 1 mM, pH 7.5, 30 min preincubation at 22° C., control = 100%

CO[C@H]1C(=O)N2C(C(=O)N3CCC[C@H]3C(=O)O)=C(COC(C)=O)CS(=O)(=O)[C@H]12 [L658,758, 4-carboxamido-substituted cephem]
Serine protease (SP) activity (%), A. fumigatus Serine Protease [1]: 93% | Prevention of hydrolysis of Suc-Ala-Ala-Pro-Leu-pNA by A. fumigatus serine protease (in words) [1]: ineffective | Serine protease (SP) activity (%), A. flavus Serine Protease [2, 9]: 91% | Prevention of hydrolysis of Suc-Ala-Ala-Pro-Leu-pNA by A. flavus serine protease (in words) [2]: ineffective | Serine protease (SP) activity (%), Porcine pancreas Serine Protease [3, 9]: 6.6% | Reduction of the activity of porcine serine protease (in words) [3]: effective at reducing the activity

CCC[C@@H](NC(=O)N1C(=O)C(CC)(CC)[C@@H]1Oc1ccc(CC(=O)O)cc1)c1ccc(C)cc1 [L680,833, (S-(R*,S*))-4-((3,3-diethyl-1-((1-(4-methyl-phenyl)butylamino)carbonyl)-4-oxo-2-azetidinyl)oxy)-benzeneacetic acid 2-amino-2-methyl-1-propanol salt]
activity at 1000 µM ([1]; pH 7.5, read-out: Serine protease (SP) activity (%), A. fumigatus Serine Protease): 93% | Prevention of hydrolysis of Suc-Ala-Ala-Pro-Leu-pNA by A. fumigatus serine protease (in words) [1]: ineffective | activity at 1000 µM ([2]; inhibitor 1 mM, pH 7.5, 30 min preincubation at 22° C., control = 100%, read-out: Serine protease (SP) activity (%), A. flavus Serine Protease): 89% | Prevention of hydrolysis of Suc-Ala-Ala-Pro-Leu-pNA by A. flavus serine protease (in words) [2]: ineffective | activity at 1000 µM ([3]; inhibitor 1 mM, pH 7.5, 30 min preincubation at 22° C., control = 100%, read-out: Serine protease (SP) activity (%), Porcine pancreas Serine Protease): 12% | Reduction of the activity of porcine serine protease (in words) [3]: effective at reducing the activity

O=S(=O)(F)Cc1ccccc1 [PMSF]
Toxicity (in words) [4]: highly toxic | Serine protease (SP) activity (%), A. fumigatus Serine Protease [1]: 0.89% | Prevention of hydrolysis of Suc-Ala-Ala-Pro-Leu-pNA by A. fumigatus serine protease (in words) [1]: reduced the enzymatic activity | Serine protease (SP) activity (%), A. flavus Serine Protease [2, 9]: 0% | Prevention of hydrolysis of Suc-Ala-Ala-Pro-Leu-pNA by A. flavus serine protease (in words) [2]: reduced the enzymatic activity | Serine protease (SP) activity (%), Porcine pancreas Serine Protease [3, 9]: 0% | Reduction of the activity of porcine serine protease (in words) [3]: reduced the enzymatic activity

C[C@@H]1[C@H](O)[C@@H](C)/C=C/C=C/C=C/C=C/C=C/C=C/C=C/[C@H](O[C@@H]2O[C@H](C)[C@@H](O)[C@H](N)[C@@H]2O)C[C@@H]2O[C@](O)(C[C@@H](O)C[C@@H](O)[C@H](O)CC[C@@H](O)C[C@@H](O)CC(=O)O[C@H]1C)C[C@H](O)[C@H]2C(=O)O [amphotericin B]
Nephrotoxicity [5]: serious side effect

A. flavus elastolytic serine protease (Aspergillus flavus)
Km [6]: 570 µM

A. fumigatus elastolytic serine protease (Aspergillus fumigatus Af293)
Km [6]: 350 µM

B1: SSI: protein produced and secreted by streptomyces, purified from Streptomyces albogriseolus strains (protein, UniProt P01006 32-144, looked up)
Subtilisin inhibitor: DAPSALYAPSALVLTVGKGVSATTAAPERAVTLTCAPGPSGTHPAAGSACADLAAVGGDLNALTRGEDVMCPMVYDPVLLTVDGVWQGKRVSYERVFSNECEMNAHGSSVFAF
Inhibition of the elastolytic serine protease from A. fumigatus (in words) [7]: greatest inhibitory effect | Mortality of treated, uninoculated, immunocompromised animals [8]: no mortality
